From patent US8652492B2, “Wet granulation using a water sequestering agent” (Rigel Pharmaceuticals, Inc., priority 2007, dated 2014) come the findings set out here.

Molecules are shown by their SMILES.

This series is described as follows: Bulk density (uncompressed, untapped powder). Type of series: physicochemical. As to conditions: Compound 1 as synthesized, cotton like fluffy agglomerates. The method, then:
As used herein, the term “bulk density” refers to the uncompressed, untapped powder bulk density, as measured by pouring an excess of powder sample through a funnel into a smooth metal vessel (e.g., a 500 mL volume cylinder), scraping off the excess from the heap above the rim of the vessel, measuring the remaining mass of powder and dividing the mass by the volume of the vessel.
Three 500 g batches of Compound 1 powder blends (see Table 3) were prepared according to the following method. A KG-5 High Shear Granulator with an 8-inch impeller diameter was used to preblend all ingredients (except magnesium stearate) at low (155 rpm), medium (405 rpm), or high (600 rpm) impeller speeds with the chopper speed of 1200 rpm for 2 minutes. Water was added at a rate of 30 to 31.5 g/min to the powder mix. After the full amount of water was added, the mixture was blended for an additional 2 minutes. The wet granules were dried with the MiniGlatt Fluid Bed Dryer at 60° C. to targeted LODs and the granule texture, size, shape, stickiness, etc visually inspected. Drying at various temperatures and times are evaluated also. […] The final blends were checked for degradation by HPLC, and physical properties determined such as, Bulk Density, Tapped Density, Carr's Index, Hausner Ratio and Flow Index by Flodex. […]

`COc1cc(Nc2ncc(F)c(Nc3ccc4c(n3)N(COP(=O)([O-])[O-])C(=O)C(C)(C)O4)n2)cc(OC)c1OC.[Na+].[Na+]` [Compound 1, (6-(5-fluoro-2-(3,4,5-trimethoxyphenylamino)pyrimidin-4-ylamino)-2,2-dimethyl-3-oxo-2H-pyrido[3,2-b][1,4]oxazin-4(3H)-yl)methyl phosphate disodium salt] gave a bulk density of 0.15 to 0.30 g/mL.
